Data taken from US8642585B2, “Indanyloxydihydrobenzofuranylacetic acids” (Boehringer Ingelheim International GmbH, priority 2012, dated 2014).
pEC50: −log10 of the molar value.

Target: human GPR40 receptor (Homo sapiens, UniProt O14842)
Experiment: Assay II: IP1 accumulation (IPOne HTRF) in 1321N1 cells stably expressing human GPR40
Assay type: cell-based
Details: 1321N1 cells expressing human GPR40, stimulation 1 h at 37° C., 5% CO2, LiCl 50 mM
Procedure: IP1 accumulation measurements using the IPOne assay system—1321N1 cells stably expressing human GPR40 receptor (Euroscreen, Belgium) are seeded 24 h before the assay in white 384-well plates in culture medium containing 10% FCS, 1% Na-Pyruvate and 400 μg/mL G418. IP1 is assayed according to the manufacturers description (Cisbio Bioassays, France). In brief, the assay is started by substitution of the culture medium by stimulation buffer (Hepes 10 mM, CaCl2 1 mM, MgCl2 0.5 mM, KCl 4.2 mM, NaCl 146 mM, glucose 5.5 mM and LiCl 50 mM, pH 7.4). Cells are stimulated for 1 h at 37° C., 5% CO2 by addition of the compounds that are diluted in stimulation buffer containing LiCl. Assays are stopped by adding HTRF-conjugates (IP1-d2 and Anti-IP1 cryptate Tb) and lysis buffer, provided by the manufacturer. After an incubation time of 1 h at room temperature plates are measured using an EnVision™, Perkin Elmer. The obtained fluorescence ratios at 665/615 nM are then used to calculate the pEC50 values using Assay Explorer 3.3 Software (Accelrys, Inc.) by interpolation using an IP1 reference curve and subsequent sigmoidal curve fitting allowing for a variable hill slope.

human GPR40 receptor, sequence (O14842 whole entry): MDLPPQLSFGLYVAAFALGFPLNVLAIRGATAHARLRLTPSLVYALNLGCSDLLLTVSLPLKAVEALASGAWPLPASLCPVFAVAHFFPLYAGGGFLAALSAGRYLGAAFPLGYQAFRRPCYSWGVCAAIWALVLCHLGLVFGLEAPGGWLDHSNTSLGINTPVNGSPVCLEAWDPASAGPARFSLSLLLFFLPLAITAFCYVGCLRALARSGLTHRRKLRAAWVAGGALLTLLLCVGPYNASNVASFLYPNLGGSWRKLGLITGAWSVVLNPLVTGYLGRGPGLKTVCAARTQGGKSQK

Row | SMILES | pEC50
1 | Cc1cc(OC[C@@H]2CCS(=O)(=O)C2)cc(C)c1-c1ccc(F)c2c1CC[C@H]2Oc1ccc2c(c1)OC[C@H]2CC(=O)O (single isomer, unassigned) [Example 46] | 8.15
2 | Cc1cc(OC2CCC(C)(O)C2)cc(C)c1-c1ccc(F)c2c1CC[C@H]2Oc1ccc2c(c1)OC[C@H]2CC(=O)O (single isomer, unassigned) [Example 78] | 8.40
3 | Cc1cc(OC2CCC(C)(O)C2)cc(C)c1-c1ccc(F)c2c1CC[C@H]2Oc1ccc2c(c1)OC[C@H]2CC(=O)O (single isomer, unassigned) [Example 79] | 8.30
4 | Cc1cc(OC[C@@H](C)CS(C)(=O)=O)cc(C)c1-c1ccc(F)c2c1CC[C@H]2Oc1ccc2c(c1)OC[C@H]2CC(=O)O [Example 36, ((S)-6-{(R)-7-Fluoro-4-[4-((R)-3-methanesulfonyl-2-methyl-propoxy)-2,6-dimethyl-phenyl]-indan-1-yloxy}-2,3-dihydro-benzofuran-3-yl)-acetic acid] | 8.10
5 | Cc1cc(OC[C@H](C)CS(C)(=O)=O)cc(C)c1-c1ccc(F)c2c1CC[C@H]2Oc1ccc2c(c1)OC[C@H]2CC(=O)O [Example 37, ((S)-6-{(R)-7-Fluoro-4-[4-((S)-3-methanesulfonyl-2-methyl-propoxy)-2,6-dimethyl-phenyl]-indan-1-yloxy}-2,3-dihydro-benzofuran-3-yl)-acetic acid] | 8.22
6 | Cc1cc(OCCN2CCCS2(=O)=O)cc(C)c1-c1ccc(F)c2c1CC[C@H]2Oc1ccc2c(c1)OC[C@H]2CC(=O)O [Example 40] | 7.89
7 | Cc1cc(OC2CCS(=O)(=O)NC2)cc(C)c1-c1ccc(F)c2c1CC[C@H]2Oc1ccc2c(c1)OC[C@H]2CC(=O)O (stereo partly drawn) [Example 41, ((S)-6-{(R)-4-[4-(1,1-Dioxo-1-[1,2]thiazinan-4-yloxy)-2,6-dimethyl-phenyl]-7-fluoro-indan-1-yloxy}-2,3-dihydro-benzofuran-3-yl)-acetic acid] | 7.74
8 | Cc1cc(OC2CCS(=O)(=O)N(C)C2)cc(C)c1-c1ccc(F)c2c1CC[C@H]2Oc1ccc2c(c1)OC[C@H]2CC(=O)O (stereo partly drawn) [Example 42, ((S)-6-{(R)-4-[2,6-Dimethyl-4-(2-methyl-1,1-dioxo-1-[1,2]thiazinan-4-yloxy)-phenyl]-7-fluoro-indan-1-yloxy}-2,3-dihydro-benzofuran-3-yl)-acetic acid] | 7.96
9 | Cc1cc(OCCCCS(C)(=O)=O)cc(C)c1-c1ccc(F)c2c1CC[C@H]2Oc1ccc2c(c1)OC[C@H]2CC(=O)O [Example 43, ((S)-6-{(R)-7-Fluoro-4-[4-(4-methanesulfonyl-butoxy)-2,6-dimethyl-phenyl]-indan-1-yloxy}-2,3-dihydro-benzofuran-3-yl)-acetic acid] | 7.66
10 | Cc1cc(O[C@@H]2CCN(S(C)(=O)=O)C2)cc(C)c1-c1ccc(F)c2c1CC[C@H]2Oc1ccc2c(c1)OC[C@H]2CC(=O)O [Example 44, ((S)-6-{(R)-7-Fluoro-4-[4-((R)-1-methanesulfonyl-pyrrolidin-3-yloxy)-2,6-dimethyl-phenyl]-indan-1-yloxy}-2,3-dihydro-benzofuran-3-yl)-acetic acid] | 7.77
11 | Cc1cc(OCC(C)(C)S(C)(=O)=O)cc(C)c1-c1ccc(F)c2c1CC[C@H]2Oc1ccc2c(c1)OC[C@H]2CC(=O)O [Example 45, ((S)-6-{(R)-7-Fluoro-4-[4-(2-methanesulfonyl-2-methyl-propoxy)-2,6-dimethyl-phenyl]-indan-1-yloxy}-2,3-dihydro-benzofuran-3-yl)-acetic acid] | 8.05
12 | Cc1cc(OC2CCN(S(C)(=O)=O)CC2)cc(C)c1-c1ccc(F)c2c1CC[C@H]2Oc1ccc2c(c1)OC[C@H]2CC(=O)O [Example 48, ((S)-6-{(R)-7-Fluoro-4-[4-(1-methanesulfonyl-piperidin-4-yloxy)-2,6-dimethyl-phenyl]-indan-1-yloxy}-2,3-dihydro-benzofuran-3-yl)-acetic acid] | 7.85
13 | Cc1cc(O[C@@H]2CCCN(S(C)(=O)=O)C2)cc(C)c1-c1ccc(F)c2c1CC[C@H]2Oc1ccc2c(c1)OC[C@H]2CC(=O)O [Example 49, ((S)-6-{(R)-7-Fluoro-4-[4-((R)-1-methanesulfonyl-piperidin-3-yloxy)-2,6-dimethyl-phenyl]-indan-1-yloxy}-2,3-dihydro-benzofuran-3-yl)-acetic acid] | 8.00
14 | Cc1cc(O[C@H]2CCCN(S(C)(=O)=O)C2)cc(C)c1-c1ccc(F)c2c1CC[C@H]2Oc1ccc2c(c1)OC[C@H]2CC(=O)O [Example 50, ((S)-6-{(R)-7-Fluoro-4-[4-((S)-1-methanesulfonyl-piperidin-3-yloxy)-2,6-dimethyl-phenyl]-indan-1-yloxy}-2,3-dihydro-benzofuran-3-yl)-acetic acid] | 7.70
15 | Cc1cc(OCC2CCCS(=O)(=O)C2)cc(C)c1-c1ccc(F)c2c1CC[C@H]2Oc1ccc2c(c1)OC[C@H]2CC(=O)O (stereo partly drawn) [Example 51, ((S)-6-{(R)-4-[4-(1,1-Dioxo-hexahydro-1-thiopyran-3-ylmethoxy)-2,6-dimethyl-phenyl]-7-fluoro-indan-1-yloxy}-2,3-dihydro-benzofuran-3-yl)-acetic acid] | 8.15
16 | Cc1cc(C(=O)NCC(C)(C)O)cc(C)c1-c1ccc(F)c2c1CC[C@H]2Oc1ccc2c(c1)OC[C@H]2CC(=O)O [Example 54, ((S)-6-{(R)-7-Fluoro-4-[4-(2-hydroxy-2-methyl-propylcarbamoyl)-2,6-dimethyl-phenyl]-indan-1-yloxy}-2,3-dihydro-benzofuran-3-yl)-acetic acid] | 7.89
17 | Cc1cc(OC(C)(C)CO)cc(C)c1-c1ccc(F)c2c1CC[C@H]2Oc1ccc2c(c1)OC[C@H]2CC(=O)O [Example 55, ((S)-6-{(R)-7-Fluoro-4-[4-(2-hydroxy-1,1-dimethyl-ethoxy)-2,6-dimethyl-phenyl]-indan-1-yloxy}-2,3-dihydro-benzofuran-3-yl)-acetic acid] | 7.60
18 | Cc1cc(OC(C)(C)C(N)=O)cc(C)c1-c1ccc(F)c2c1CC[C@H]2Oc1ccc2c(c1)OC[C@H]2CC(=O)O [Example 56, ((S)-6-{(R)-4-[4-(1-Carbamoyl-1-methyl-ethoxy)-2,6-dimethyl-phenyl]-7-fluoro-indan-1-yloxy}-2,3-dihydro-benzofuran-3-yl)-acetic acid] | 7.37
19 | Cc1cc(OCC(C)(C)C#N)cc(C)c1-c1ccc(F)c2c1CC[C@H]2Oc1ccc2c(c1)OC[C@H]2CC(=O)O [Example 64, 2-((S)-6-((R)-4-(4-(2-Cyano-2-methylpropoxy)-2,6-dimethylphenyl)-7-fluoro-2,3-dihydro-1H-inden-1-yloxy)-2,3-dihydrobenzofuran-3-yl)acetic acid] | 8.10
20 | Cc1cc(OCC2(O)CCOCC2)cc(C)c1-c1ccc(F)c2c1CC[C@H]2Oc1ccc2c(c1)OC[C@H]2CC(=O)O [Example 66, 2-((S)-6-((R)-7-Fluoro-4-(4-((4-hydroxytetrahydro-2H-pyran-4-yl)methoxy)-2,6-dimethylphenyl)-2,3-dihydro-1H-inden-1-yloxy)-2,3-dihydrobenzofuran-3-yl)acetic acid] | 8.30
21 | Cc1cc(CCC(C)(C)O)cc(C)c1-c1ccc(F)c2c1CC[C@H]2Oc1ccc2c(c1)OC[C@H]2CC(=O)O [Example 67, 2-((S)-6-((R)-7-Fluoro-4-(4-(3-hydroxy-3-methylbutyl)-2,6-dimethylphenyl)-2,3-dihydro-1H-inden-1-yloxy)-2,3-dihydrobenzofuran-3-yl)acetic acid] | 8.15
22 | Cc1cc(OCC2(O)CCSCC2)cc(C)c1-c1ccc(F)c2c1CC[C@H]2Oc1ccc2c(c1)OC[C@H]2CC(=O)O [Example 68, 2-((S)-6-((R)-7-Fluoro-4-(4-((4-hydroxytetrahydro-2H-thiopyran-4-yl)methoxy)-2,6-dimethylphenyl)-2,3-dihydro-1H-inden-1-yloxy)-2,3-dihydrobenzofuran-3-yl)acetic acid] | 8.00
23 | Cc1cc(OCC2(O)CCS(=O)(=O)CC2)cc(C)c1-c1ccc(F)c2c1CC[C@H]2Oc1ccc2c(c1)OC[C@H]2CC(=O)O [Example 69, 2-((S)-6-((R)-7-Fluoro-4-(4-((1,1-dioxo-4-hydroxytetrahydro-2H-thiopyran-4-yl)methoxy)-2,6-dimethylphenyl)-2,3-dihydro-1H-inden-1-yloxy)-2,3-dihydrobenzofuran-3-yl)acetic acid] | 8.10
24 | Cc1cc(CCCS(C)(=O)=O)cc(C)c1-c1ccc(F)c2c1CC[C@H]2Oc1ccc2c(c1)OC[C@H]2CC(=O)O [Example 70, 2-((S)-6-((R)-4-(2,6-Dimethyl-4-(3-(methylsulfonyl)propyl)phenyl)-7-fluoro-2,3-dihydro-1H-inden-1-yloxy)-2,3-dihydrobenzofuran-3-yl)acetic acid] | 7.22
25 | Cc1cc(OCCNS(C)(=O)=O)cc(C)c1-c1ccc(F)c2c1CC[C@H]2Oc1ccc2c(c1)OC[C@H]2CC(=O)O [Example 71, 2-((S)-6-((R)-4-(2,6-Dimethyl-4-(2-(methylsulfonamido)ethoxy)phenyl)-7-fluoro-2,3-dihydro-1H-inden-1-yloxy)-2,3-dihydrobenzofuran-3-yl)acetic acid] | 7.55
26 | CC(=O)NCCc1cc(C)c(-c2ccc(F)c3c2CC[C@H]3Oc2ccc3c(c2)OC[C@H]3CC(=O)O)c(C)c1 [Example 72, 2-((S)-6-((R)-4-(4-(2-Acetamidoethyl)-2,6-dimethylphenyl)-7-fluoro-2,3-dihydro-1H-inden-1-yloxy)-2,3-dihydrobenzofuran-3-yl)acetic acid] | 7.64
